# In patent US20030105300A1, “Tumor targeted photodiagnostic-phototherapeutic agents” (MALLINCKRODT INC., priority 2001, published 2003):
# Experiments:
# Parameters in all cases: species or system male Lewis rats
# [1] = test system: DSL 6/A (pancreatic) tumor; assay: In vivo fluorescence imaging of tumor-bearing rats with indocyanine green (DSL 6/A); details: DSL 6/A tumor, left flank; 0.5 ml of 0.42 mg/ml ICG in saline, tail vein; images at 2 and 30 minutes
# Text: (§1) A non-invasive in vivo fluorescence imaging apparatus was employed to assess the efficacy of indocyanine green (ICG) in three different rat tumor cell lines of the inventive contrast agents developed for tumor detection in animal models. A LaserMax Inc. laser diode of nominal wavelength 780 nm and nominal power of 40 mW was used. The detector was a Princeton Instruments model RTE/CCD-1317-K/2 CCD camera with a Rodenstock 10 mm F2 lens (stock #542.032.002.20) attached. An 830 nm […] (CVI Laser Corp., part #F10-830-4-2) was mounted in front of the CCD input lens, such that only emitted fluorescent light from the contrast agent was imaged.
# (§2) Three tumor cell lines, DSL 6/A (pancreatic), Dunning R3327-H (prostate), and CA20948 (pancreatic), which are rich in somatostatin (SST-2) receptors were induced into male Lewis rats by solid implant technique in the left flank area (Achilefu et al., Invest. Radiology, 2000, pp. 479-485). Palpable masses were detected nine days post implant.
# [2] = test system: Dunning R3327-H (prostate) tumor; assay: In vivo fluorescence imaging of tumor-bearing rats with indocyanine green (Dunning R3327-H); details: left flank, 0.5 ml of 0.42 mg/ml ICG in saline, tail vein, images at 2 and 30 minutes
# Text: as §1, §2
# [3] = test system: CA20948 (pancreatic) tumor; assay: In vivo fluorescence imaging of tumor-bearing rats with indocyanine green (CA20948)
# Text: as §1, §2
smiles,measurement,setting,value
"CC1(C)C(/C=C/C=C/C=C/C=C2\N(CCCCS(=O)(=O)O)c3ccc4ccccc4c3C2(C)C)=[N+](CCCCS(=O)(=O)[O-])c2ccc3ccccc3c21 [ICG, indocyanine green]",perfusion of the agent into the tumor (fluorescence images),[1],slow perfusion of the agent into the tumor over time
same,perfusion of the agent into the tumor (fluorescence images),[2],slow perfusion of the agent into the tumor over time
same,non-specific localization into the tumor line,[3]; compared to the other two lines,no non-specific localization
same,perfusion of the agent into the tumor (fluorescence images),"[3]; left flank, 0.5 ml of 0.42 mg/ml ICG in saline, tail vein, images at 2 and 30 minutes",only a slight and transient perfusion that was cleared after only 30 minutes post injection
